Reference: patent US20170127693A1, “NUTRITIONAL COMPOSITIONS CONTAINING BUTYRATE AND USES THEREOF” (Mead Johnson Nutrition Company, priority 2015, published 2017)

Format: physicochemical
Text: The dietary butyrate can comprise a phenylalanine amide derivative of butyric acid. In fact, use of a phenylalanine amide derivative of butyric acid provides for improved organoleptic and physicochemical characteristics as it is an odorless and colorless solid crystalline powder. Furthermore, the purification of phenylalanine amide derivatives of butyric acid may be particularly economical for purification in terms of the cost to purify versus the yield of compound ratio. Accordingly, in certain embodiments, the dietary butyrate may comprise an acid-stable butyrate amide with the amino acid phenylalanine, such as phenylalanine-butyramide (“FBA”). […] Moreover, the solubility of FBA in water is satisfactory as it produces clear solutions up to the concentration 0.1 M and suspensions at higher concentrations. Accordingly, FBA is a suitable form of dietary butyrate that may be incorporated into powdered nutritional compositions that are to be reconstituted with water or some other type of liquid.

phenylalanine-butyramide [FBA]
solubility in water (concentration up to which clear solutions are produced): ≤ 0.1 M
stability to acids and alkalis: stable to acids and alkalis
